Experimental findings from patent US20080161219A1, “CLATHRATES OF AN ORGANOSILANE QUATERNARY AMMONIUM COMPOUND AND UREA AND METHODS OF USE” (priority 2007, published 2008) are described below.

Data set [1] in a line: Solubility / stability against decomposition in chloroform. The data set is classed as physicochemical. On the procedure: The following experiments were conducted to determine if the clathrate compositions of this invention would be decomposed by chloroform (a strong solvent).
7.51 grams of urea were slurried in a beaker with 75.4 grams of chloroform by magnetic stirring for 10 minutes. The slurry was then filtered by gravity through filter paper. The filtrate was employed to rinse the beaker to remove all solids and the rinse added to the filter cake. The filtrate was then evaporated in a tared beaker and a residue of 0.01 grams obtained (which was within experimental error). From this experiment, it can be concluded that urea was insoluble in chloroform.
10.21 grams of Example 7, Table 1 organosilane quaternary clathrate was slurried as above in 75 grams of chloroform for 10 minutes and the slurry filtered as above and the filtrate evaporated to dryness. A waxy residue of 0.07 grams remained in the beaker.
It can be concluded that this residue was not the organosilane quaternary. The solids that were filtered were dried to constant weight. 10.24 grams were recovered. 10.21 grams of the clathrate had been added. The difference of +0.03 grams was within experimental error. It can be concluded that the clathrate was not soluble in chloroform and that the organosilane quaternary was not extracted from the clathrate by the chloroform.

Data set [2] in a line: Dissolving clathrate in deionized water (appearance of mixture). Type of data set: physicochemical. The settings on record: 6.4 gms clathrate in 800 ml deionized water (pH=3), shaken; 0.2% quat, 0.6% urea.
Protocol: Clean and shield compositions were prepared by dissolving 6.4 gms of each urea clathrate of Examples 4 and 7 from Table 1 in 800 ml of deionized water (pH=3) by shaking in a plastic bottle. The resulting solutions contained 0.2% organosilane quaternary compound and 0.6% urea.

`NC(N)=O` [urea]: in data set [1], the “residue of evaporated chloroform filtrate” value is 0.01 grams and the solubility in chloroform result is on record as “insoluble”.
Turning to `CCCCCCCCCCCCCCCCCC[N+](C)(C)CCC[Si](OC)(OC)OC.[Cl-]` [Example 7, 3-(trimethoxysilyl)propyldimethyloctadecyl ammonium chloride], in data set [2], the appearance of solution entry is “clear”.
